Target: T1, human PTH1 receptor (Homo sapiens, UniProt Q03431)
T1 sequence (Q03431 27-593): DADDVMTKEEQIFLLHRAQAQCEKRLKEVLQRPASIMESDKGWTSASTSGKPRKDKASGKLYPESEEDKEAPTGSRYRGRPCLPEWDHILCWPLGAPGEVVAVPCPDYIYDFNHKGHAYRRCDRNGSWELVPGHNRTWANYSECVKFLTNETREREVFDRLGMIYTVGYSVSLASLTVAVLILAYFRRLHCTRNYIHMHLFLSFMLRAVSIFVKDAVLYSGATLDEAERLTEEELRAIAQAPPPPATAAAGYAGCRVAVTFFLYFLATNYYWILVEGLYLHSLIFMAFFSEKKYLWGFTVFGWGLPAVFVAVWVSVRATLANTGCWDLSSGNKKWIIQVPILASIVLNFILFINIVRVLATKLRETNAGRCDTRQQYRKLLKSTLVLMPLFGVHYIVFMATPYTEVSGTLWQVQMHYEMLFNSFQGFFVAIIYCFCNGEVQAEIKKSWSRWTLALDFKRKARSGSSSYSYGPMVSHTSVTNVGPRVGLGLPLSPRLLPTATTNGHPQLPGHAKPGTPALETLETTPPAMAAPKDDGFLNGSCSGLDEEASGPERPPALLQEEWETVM
Assay: In vitro cAMP signal activity in HKRK-B7 cells (LLC-PK1 cells overexpressing the human PTH1 receptor)
Type: cell-based
Conditions: HKRK-B7 cells; compound at 1×10^−3 M; cAMP produced as percentage of that produced by hPTH(1-34) at 100 nM

Compound	cAMP production activity (%)
Cc1cc(C(=O)N2CC(O)C2)ccc1CCS(=O)(=O)N1CCC2(CC1)N=C(c1cccc(C(F)(F)F)c1)NC2=O [Compound 377, 8-{2-[4-(3-hydroxy-azetidine-1-carbonyl)-2-methyl-phenyl]-ethanesulfonyl}-2-(3-trifluoromethyl-phenyl)-1,3,8-triaza-spiro[4.5]dec-1-en-4-one]	64
Cc1cc(C(=O)N2CCC(F)C2)ccc1CCS(=O)(=O)N1CCC2(CC1)N=C(c1cccc(C(F)(F)F)c1)NC2=O (stereo not drawn) [Compound 378, 8-{2-[4-(3-fluoro-pyrrolidine-1-carbonyl)-2-methyl-phenyl]-ethanesulfonyl}-2-(3-trifluoromethyl-phenyl)-1,3,8-triaza-spiro[4.5]dec-1-en-4-one]	60
Cc1cc(C(=O)N2CCCCC2)ccc1CCS(=O)(=O)N1CCC2(CC1)N=C(c1cccc(C(F)(F)F)c1)NC2=O [Compound 380, 8-{2-[2-methyl-4-(piperidine-1-carbonyl)-phenyl]-ethanesulfonyl}-2-(3-trifluoromethyl-phenyl)-1,3,8-triaza-spiro[4.5]dec-1-en-4-one]	75
Cc1cc(C(=O)N2CCN(C(=O)N(C)C)CC2)ccc1CCS(=O)(=O)N1CCC2(CC1)N=C(c1cccc(C(F)(F)F)c1)NC2=O [Compound 382, 4-(3-methyl-4-{2-[4-oxo-2-(3-trifluoromethyl-phenyl)-1,3,8-triaza-spiro[4.5]dec-1-ene-8-sulfonyl]-ethyl}-benzoyl)-piperazine-1-carboxylic acid dimethylamide]	36
Cc1cc(C(=O)N(C)C)cc(C)c1/C=C/S(=O)(=O)N1CCC2(CC1)N=C(c1cccc(C(F)(F)F)c1)NC2=O [Compound 383, 3,5,N,N-Tetramethyl-4-{(E)-2-[4-oxo-2-(3-trifluoromethyl-phenyl)-1,3,8-triaza-spiro[4.5]dec-1-ene-8-sulfonyl]-vinyl}-benzamide]	72
Cc1cc(C(=O)N2CC(O)C2)cc(C)c1/C=C/S(=O)(=O)N1CCC2(CC1)N=C(c1cccc(C(F)(F)F)c1)NC2=O [Compound 385, 8-{(E)-2-[4-(3-hydroxy-azetidine-1-carbonyl)-2,6-dimethyl-phenyl]-ethenesulfonyl}-2-(3-trifluoromethyl-phenyl)-1,3,8-triaza-spiro[4.5]dec-1-en-4-one]	94
Cc1cc(C(=O)N2CCCC2)cc(C)c1/C=C/S(=O)(=O)N1CCC2(CC1)N=C(c1cccc(C(F)(F)F)c1)NC2=O [Compound 388, 8-{(E)-2-[2,6-dimethyl-4-(pyrrolidine-1-carbonyl)-phenyl]-ethenesulfonyl}-2-(3-trifluoromethyl-phenyl)-1,3,8-triaza-spiro[4.5]dec-1-en-4-one]	84
Cc1cc(C(=O)N(C)CCCO)cc(C)c1/C=C/S(=O)(=O)N1CCC2(CC1)N=C(c1cccc(C(F)(F)F)c1)NC2=O [Compound 389, N-(3-hydroxy-propyl)-3,5,N-trimethyl-4-{(E)-2-[4-oxo-2-(3-trifluoromethyl-phenyl)-1,3,8-triaza-spiro[4.5]dec-1-ene-8-sulfonyl]-vinyl}-benzamide]	75
Cc1cc(C(=O)N(C)CCN(C)C)cc(C)c1/C=C/S(=O)(=O)N1CCC2(CC1)N=C(c1cccc(C(F)(F)F)c1)NC2=O [Compound 390, N-(2-dimethylamino-ethyl)-3,5,N-trimethyl-4-{(E)-2-[4-oxo-2-(3-trifluoromethyl-phenyl)-1,3,8-triaza-spiro[4.5]dec-1-ene-8-sulfonyl]-vinyl}-benzamide]	22
Cc1cc(C(=O)N(C)CC(N)=O)cc(C)c1/C=C/S(=O)(=O)N1CCC2(CC1)N=C(c1cccc(C(F)(F)F)c1)NC2=O [Compound 392, N-carbamoylmethyl-3,5,N-trimethyl-4-{(E)-2-[4-oxo-2-(3-trifluoromethyl-phenyl)-1,3,8-triaza-spiro[4.5]dec-1-ene-8-sulfonyl]-vinyl}-benzamide]	83
Cc1cc(C(=O)N(C)C2CCN(C)CC2)cc(C)c1/C=C/S(=O)(=O)N1CCC2(CC1)N=C(c1cccc(C(F)(F)F)c1)NC2=O [Compound 393, 3,5,N-trimethyl-N-(1-methyl-piperidin-4-yl)-4-{(E)-2-[4-oxo-2-(3-trifluoromethyl-phenyl)-1,3,8-triaza-spiro[4.5]dec-1-ene-8-sulfonyl]-vinyl}-benzamide]	44
CC(=O)N1CCN(C(=O)c2cc(C)c(/C=C/S(=O)(=O)N3CCC4(CC3)N=C(c3cccc(OC(F)(F)F)c3)NC4=O)c(C)c2)CC1 [Compound 394, 8-{(E)-2-[4-(4-Acetyl-piperazine-1-carbonyl)-2,6-dimethyl-phenyl]-ethenesulfonyl}-2-(3-trifluoromethoxy-phenyl)-1,3,8-triaza-spiro[4.5]dec-1-en-4-one]	59

Next, values leading:

cAMP production activity (%)	Compound
59	Cc1cc(C(=O)N2CC(F)C2)ccc1CCS(=O)(=O)N1CCC2(CC1)N=C(c1cccc(C(F)(F)F)c1)NC2=O [Compound 379, 8-{2-[4-(3-fluoro-azetidine-1-carbonyl)-2-methyl-phenyl]-ethanesulfonyl}-2-(3-trifluoromethyl-phenyl)-1,3,8-triaza-spiro[4.5]dec-1-en-4-one]
72	Cc1cc(C(=O)N2CCC2)ccc1CCS(=O)(=O)N1CCC2(CC1)N=C(c1cccc(C(F)(F)F)c1)NC2=O [Compound 381, 8-{2-[4-(azetidine-1-carbonyl)-2-methyl-phenyl]-ethanesulfonyl}-2-(3-trifluoromethyl-phenyl)-1,3,8-triaza-spiro[4.5]dec-1-en-4-one]
61	Cc1cc(C(=O)N2CCC(O)CC2)cc(C)c1/C=C/S(=O)(=O)N1CCC2(CC1)N=C(c1cccc(C(F)(F)F)c1)NC2=O [Compound 384, 8-{(E)-2-[4-(4-hydroxy-piperidine-1-carbonyl)-2,6-dimethyl-phenyl]-ethenesulfonyl}-2-(3-trifluoromethyl-phenyl)-1,3,8-triaza-spiro[4.5]dec-1-en-4-one]
86	Cc1cc(C(=O)N2CCC(O)(CO)CC2)cc(C)c1/C=C/S(=O)(=O)N1CCC2(CC1)N=C(c1cccc(C(F)(F)F)c1)NC2=O [Compound 386, 8-{(E)-2-[4-(4-hydroxy-4-hydroxymethyl-piperidine-1-carbonyl)-2,6-dimethyl-phenyl]-ethenesulfonyl}-2-(3-trifluoromethyl-phenyl)-1,3,8-triaza-spiro[4.5]dec-1-en-4-one]
97	Cc1cc(C(=O)N2C[C@@H](O)[C@H](N(C)C)C2)cc(C)c1/C=C/S(=O)(=O)N1CCC2(CC1)N=C(c1cccc(C(F)(F)F)c1)NC2=O [Compound 387, 8-{(E)-2-[4-((3R,4R)-3-dimethylamino-4-hydroxy-pyrrolidine-1-carbonyl)-2,6-dimethyl-phenyl]-ethenesulfonyl}-2-(3-trifluoromethyl-phenyl)-1,3,8-triaza-spiro[4.5]dec-1-en-4-one]
26	Cc1cc(C(=O)N(C)CCCN(C)C)cc(C)c1/C=C/S(=O)(=O)N1CCC2(CC1)N=C(c1cccc(C(F)(F)F)c1)NC2=O [Compound 391, N-(3-dimethylamino-propyl)-3,5,N-trimethyl-4-{(E)-2-[4-oxo-2-(3-trifluoromethyl-phenyl)-1,3,8-triaza-spiro[4.5]dec-1-ene-8-sulfonyl]-vinyl}-benzamide]

Source: patent US9169254B2, “Spiroimidazolone derivative” (Chugai Seiyaku Kabushiki Kaisha, priority 2009, dated 2015)
